The record followed here is US9708323B2, “Tricyclic compounds as alpha-7 nicotinic acetylcholine receptor ligands” (BRISTOL-MYERS SQUIBB COMPANY, priority 2014, dated 2017).

A value given as a limit tells only on which side of the number the result lay.

The target of the first assay is T1, α-7 nicotinic ACh receptor ion channel expressed in HEK 293 cells (Rattus norvegicus, UniProt Q05941).
T1 construct: expressed in transfected cells
T1 sequence (Q05941 23-502): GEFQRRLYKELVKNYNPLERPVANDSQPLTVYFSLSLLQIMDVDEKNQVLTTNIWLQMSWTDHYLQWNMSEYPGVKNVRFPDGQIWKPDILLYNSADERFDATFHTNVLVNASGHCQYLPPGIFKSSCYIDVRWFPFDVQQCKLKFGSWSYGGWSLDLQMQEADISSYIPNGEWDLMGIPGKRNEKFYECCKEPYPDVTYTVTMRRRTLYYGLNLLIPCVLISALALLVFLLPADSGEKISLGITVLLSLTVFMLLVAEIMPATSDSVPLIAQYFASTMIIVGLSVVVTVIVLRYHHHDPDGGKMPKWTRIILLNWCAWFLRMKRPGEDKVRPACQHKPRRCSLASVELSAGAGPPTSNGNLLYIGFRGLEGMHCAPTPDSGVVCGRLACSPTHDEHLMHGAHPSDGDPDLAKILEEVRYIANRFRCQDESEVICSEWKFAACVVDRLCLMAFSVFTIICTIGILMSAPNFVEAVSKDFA
Description: Ca2+-sensitive, fluorescence-based assay for α-7 nicotinic acetylcholine receptor channel function in mammalian cells (FLIPR). Format: cell-based. Particulars: Table 2, agonist Ca2+ flux, read-out: FLIPR α7 (EC50). Here is the method: II) A Ca^2+-Sensitive, Fluorescence-Based Assay α-7 for Nicotinic Acetylcholine Receptor Channel Function in Mammalian Cells (“FLIPR”). Summary:
Lead compounds are evaluated for agonist activity at α-7, α3β4, α4αβ2, and α1β1δ1ε sub-types of nicotinic ACh receptor ion channels expressed in mammalian HEK 293 cells. Agonist potency and efficacy values are determined from kinetic fluorescence Ca^2+ influx measurements made using a 384 well FLIPR (Fluorescence Image Plate Reader). The utility of fluorescent indicators for measuring changes in intracellular divalent cation concentrations, particularly Ca^2+, for drug discovery endeavors is well documented (Rudiger, R., et al., Nature Reviews, 2003, 4:579-586; Gonzalez J. E., et al., Receptors and Channels, 2002, 8:283-295). In this assay, channel expressing HEK cell lines seeded in 384 well assay plates are loaded with a membrane permeant fluorescent Ca^2+ indicator dye, whose 510 nm green emission signal increases in response to elevation of intracellular Ca^2+ concentration. The basal fluorescence from the cells is monitored in real time, followed by the acute addition of test compounds. If the compound is an agonist at any of the non-selective cation channels, the latter open and allow the movement of extracellular Ca^2+ ions into the cell cytoplasm, where they bind to the Ca^2+ indicator dye, and produce an increase in fluorescence output signal, which is detected by a cooled CCD imaging camera.
Reagents: The acetomethoxy (AM) ester of the Ca^2+ indicator dye Fluo-4 was obtained from InVitrogen, (Carlsbad, Calif.). Acetylcholine and all buffer constituents were purchased from Sigma Chemical Company, St. Louis, Mo. G418 and Minimal Essential Medium were purchased from InVitrogen Life Technologies, Carlsbad, Calif. Fetal bovine serum was purchased from (InVitrogen, Carlsbad, Calif.).
HEK-293 cells were grown in Minimal Essential Medium containing 10% (v/v) fetal bovine serum at 37° C. in a 5% CO2 incubator. HEK-293 cells stably expressing the ion channels were grown in the same medium with the addition of 500 μg/ml G418.
HEK-293 cells expressing the ion channels of interest were plated in 384 well, black-walled, clear-bottomed, poly-D-lysine coated plates at a density of ˜20,000 cells/well in 20 μl of Minimal Essential Medium containing 10% (v/v) fetal bovine serum and incubated for 2 days at 29° C. in a 5% CO2 incubator. Prior to assay, cells were loaded with the Fluo-4 AM ester. Cell loading was accomplished by removing the culture medium and replacing it with 30 μl/well of the AM ester of the dye (5 μM) mixed with Hanks Balanced Salt Solution (#14175-095) containing 20 mM HEPES, 2.5 mM probenecid, 0.5 mM CaCl2, 1 mM MgCl2 and 10 μM atropine. Dye loading was allowed to proceed for 90 minutes at room temperature at which time the dye loading solution was removed and replaced with 40 μl/well of Hanks buffer. Cells loaded with dye were loaded onto a FLIPR384 (Molecular Devices, Sunnyvale, Calif.). Fluo-4 dye was excited using the 488 nm line of an argon laser. Emission was filtered using a 540+/−30 nm bandpass filter. For evaluation of the effects of test compounds using the Ca^2+ flux assay, compounds to be tested were provided in assay ready plates. For nicotinic receptor ion channel expressing cells, the assay was initiated by the addition of 20 μl/well of Hanks buffer containing test compounds. For all assays, data were collected at 1 Hz for 10 seconds (baseline), at which time the compound containing stimulus buffers are added, and further measurements collected at 0.33 Hz for 3 min.
The statistical robustness of the nicotinic receptor Ca^2+ flux assays is determined from blanks and totals wells. The totals wells define maximal channel activation for each compound test plate (Maximum efficacious dose of acetylcholine), and the blanks wells which contain matched DMSO only, define zero channel activation. […]
(A change in cytosolic calcium serves as a functional read-out for many receptors and channels.)
In general, EC50 refers to the concentration needed to bring the measured effect to its halfway point. With `O=C(c1cc2cccc(Cl)c2s1)N1C[C@H]2C[N@]3CC[C@H]2[C@H]1C3` [Example 96, 7-chlorobenzo[b]thiophen-2-yl((3R,3aR,6S,7aS)-hexahydro-3,6-methanopyrrolo[2,3-c]pyridin-1(2H)-yl)methanone], the EC50 is > 100 µM.
For `O=C(c1nsc2ccccc12)N1C[C@H]2C[N@]3CC[C@H]2[C@H]1C3` [Example 97, benzo[d]isothiazol-3-yl((3R,3aR,6S,7aS)-hexahydro-3,6-methanopyrrolo[2,3-c]pyridin-1(2H)-yl)methanone], the EC50 came out at 30 µM.
The same measure, in the same setting: to `O=C(c1ccc(Cl)cc1)N1C[C@H]2C[N@]3CC[C@H]2[C@H]1C3` [Example 98, (4-chlorophenyl) ((3R,3aR,6S,7aS)-hexahydro-3,6-methanopyrrolo[2,3-c]pyridin-1(2H)-yl)methanone] belongs > 100 µM.
Same read-out and setting: to `O=C(c1cc2ccccc2o1)N1C[C@H]2C[N@]3CC[C@H]2[C@H]1C3` [Example 99, benzofuran-2-yl((3R,3aR,6S,7aS)-hexahydro-3,6-methanopyrrolo[2,3-c]pyridin-1(2H)-yl)methanone] belongs 35 µM.

Still in this assay, the particulars now being: Table 3, agonist Ca2+ flux, read-out: FLIPR α7 (EC50).
With `O=C(c1cc2ccccc2s1)N1C[C@@H]2C[N@@]3CC[C@@H]2[C@@H]1C3` [Example 100, benzo[b]thiophen-2-yl((3S,3aS,6R,7aR)-hexahydro-3,6-methanopyrrolo[2,3-c]pyridin-1(2H)-yl)methanone], the concentration for a half-maximal effect (EC50) amounted to 11 µM.
Same read-out and setting: the same measure for `Cn1nc(C(=O)N2C[C@@H]3C[N@@]4CC[C@@H]3[C@@H]2C4)c2ccccc21` [Example 101, ((3S,3aS,6R,7aR)-hexahydro-3,6-methanopyrrolo[2,3-c]pyridin-1(2H)-yl)(1-methyl-1H-indazol-3-yl)methanone]: > 100 µM; for `Cn1cc(C(=O)N2C[C@@H]3C[N@@]4CC[C@@H]3[C@@H]2C4)c2ccccc21` [Example 102, ((3S,3aS,6R,7aR)-hexahydro-3,6-methanopyrrolo[2,3-c]pyridin-1(2H)-yl)(1-methyl-1H-indol-3-yl)methanone]: > 100 µM.
As for `O=C(c1n[nH]c2ccc(Cl)cc12)N1C[C@@H]2C[N@@]3CC[C@@H]2[C@@H]1C3` [Example 103, ((3S,3aS,6R,7aR)-hexahydro-3,6-methanopyrrolo[2,3-c]pyridin-1(2H)-yl)(5-chloro-1H-indazol-3-yl)methanone], the EC50 is > 100 µM.
For `COc1ccc2c(C(=O)N3C[C@@H]4C[N@@]5CC[C@@H]4[C@@H]3C5)n[nH]c2c1` [Example 104, ((3S,3aS,6R,7aR)-hexahydro-3,6-methanopyrrolo[2,3-c]pyridin-1(2H)-yl)(6-methoxy-1H-indazol-3-yl)methanone], the concentration giving a half-maximal response (EC50) was > 100 µM.
For `O=C(c1n[nH]c2ccc(Br)cc12)N1C[C@@H]2C[N@@]3CC[C@@H]2[C@@H]1C3` [Example 105, ((3S,3aS,6R,7aR)-hexahydro-3,6-methanopyrrolo[2,3-c]pyridin-1(2H)-yl)(5-bromo-1H-indazol-3-yl)methanone], the concentration giving a half-maximal response (EC50) is > 100 µM.
The same measure, in the same setting: the same measure for `O=C(c1cc2c(Cl)cccc2s1)N1C[C@@H]2C[N@@]3CC[C@@H]2[C@@H]1C3` [Example 106, 4-chlorobenzo[b]thiophen-2-yl((3S,3aS,6R,7aR)-hexahydro-3,6-methanopyrrolo[2,3-c]pyridin-1(2H)-yl)methanone]: > 100 µM; for `COc1cccc2[nH]nc(C(=O)N3C[C@@H]4C[N@@]5CC[C@@H]4[C@@H]3C5)c12` [Example 107, ((3S,3aS,6R,7aR)-hexahydro-3,6-methanopyrrolo[2,3-c]pyridin-1(2H)-yl)(4-methoxy-1H-indazol-3-yl)methanone]: 30 µM; for `O=C(c1cc2cccc(Cl)c2s1)N1C[C@@H]2C[N@@]3CC[C@@H]2[C@@H]1C3` [Example 108, 7-chlorobenzo[b]thiophen-2-yl((3S,3aS,6R,7aR)-hexahydro-3,6-methanopyrrolo[2,3-c]pyridin-1(2H)-yl)methanone]: > 100 µM.
Same read-out and setting: to `O=C(c1n[nH]c2cc(Cl)ccc12)N1C[C@@H]2C[N@@]3CC[C@@H]2[C@@H]1C3` [Example 109, ((3S,3aS,6R,7aR)-hexahydro-3,6-methanopyrrolo[2,3-c]pyridin-1(2H)-yl)(6-chloro-1H-indazol-3-yl)methanone] belongs > 100 µM; to `COc1ccc2[nH]nc(C(=O)N3C[C@@H]4C[N@@]5CC[C@@H]4[C@@H]3C5)c2c1` [Example 110, ((3S,3aS,6R,7aR)-hexahydro-3,6-methanopyrrolo[2,3-c]pyridin-1(2H)-yl)(5-methoxy-1H-indazol-3-yl)methanone], > 100 µM.
Same read-out and setting: to `O=C(c1nsc2ccccc12)N1C[C@@H]2C[N@@]3CC[C@@H]2[C@@H]1C3` [Example 111, benzo[d]isothiazol-3-yl((3S,3aS,6R,7aR)-hexahydro-3,6-methanopyrrolo[2,3-c]pyridin-1(2H)-yl)methanone] belongs 36 µM; to `O=C(c1ccc(Cl)cc1)N1C[C@@H]2C[N@@]3CC[C@@H]2[C@@H]1C3` [Example 112, (4-chlorophenyl)((3S,3aS,6R,7aR)-hexahydro-3,6-methanopyrrolo[2,3-c]pyridin-1(2H)-yl)methanone], > 100 µM; to `O=C(c1cc2ccccc2o1)N1C[C@@H]2C[N@@]3CC[C@@H]2[C@@H]1C3` [Example 113, benzofuran-2-yl((3S,3aS,6R,7aR)-hexahydro-3,6-methanopyrrolo[2,3-c]pyridin-1(2H)-yl)methanone], > 100 µM.

Staying with this assay, now noted: Table 4, agonist Ca2+ flux, read-out: FLIPR α7 (EC50).
For `O=C(c1n[nH]c2ccccc12)N1CC2CCN3CCC2C1C3` (centres unmarked) [Example 114, (hexahydro-1H-1,6-methanopyrrolo[3,4-d]azepin-2(7H)-yl)(1H-indazol-3-yl)methanone], the EC50 was 0.47 µM.

Staying with this assay, now noted: Table 5, agonist Ca2+ flux, read-out: FLIPR α7 (EC50).
As for `O=C(c1n[nH]c2ccccc12)N1C2CC3CC1CN(C3)C2` [Example 115, 1,4-diazaadamantan-4-yl(1H-indazol-3-yl)methanone], the EC50 was 0.073 µM.
